Four molecules from patent US20220026439A1, “PARTICLE BASED SMALL MOLECULE-PROTEIN COMPLEX TRAP” (priority 2018, published 2022) can be followed below.

One experiment concerns the target FKBP12 / PPP3CA (Homo sapiens, UniProt P62942). Description: ViroTrap (gag-FKBP12 bait) with LC-MS/MS: FK506-induced binding of PPP3CA (calcineurin catalytic subunit) to FKBP12. As to conditions: HEK293T cells. In kind it is cell-based.
Another experiment addresses T1, CRBN / ASS1 (Homo sapiens, UniProt Q96SW2).
T1 construct: expressed in transfected cells; host or cells: HEK293T
Description: ViroTrap (gag-CRBN bait) with LC-MS/MS: molecular glue-induced recruitment of endogenous ASS1 to CRBN in virus-like particles. The format is cell-based. The source says: In this study we evaluated the use of ViroTrap to identify molecular glue-induced endogenous (neo)substrates of CRBN in HEK293T cells. For this purpose, we used a previously described method known as ViroTrap (Eyckerman, et al. “Trapping mammalian protein complexes in viral particles,” Nature Communications 7: 11416 (2016); Titeca, et al. “Analyzing trapped protein complexes by Virotrap and SFINX.” Nature Protocols 12.5 (2017): 881). With this method, CRBN is expressed as a fusion protein with the viral protein HIV-GAG. HIV-GAG, when expressed in cells, such as HEK293T, is capable of triggering the formation of virus-like particles that bud off the cells. In the particle, the HIV-GAG protein is oriented towards the center of the particle. […] In the event the GAG-CRBN fusion interacts with proteins inside the cells, such proteins are dragged/trapped along with GAG-CRBN into the virus-like particles. In this manner, endogenous proteins that interact with CRBN, in presence or absence of a CRBN-ligand, can be identified. This is achieved by lysis of the particle and a standard mass-spectrometry analysis of tryptic digest of the sample. Subtractive analysis will then identify proteins that are specifically associated with the particle in response to a CRBN-ligand such as a molecular glue. […] Twenty-four hours after compound addition, virus-like particles (VLPs) were isolated from the cell supernatant using anti-Flag coated magnetobeads. After elution from the beads using Flag peptide, purified VLPs were lysed, and the protein content was digested overnight with trypsin. The peptide samples were analyzed through LC-MS/MS and label-free quantification data (LFQ intensities) from triplicate samples was processed using the MaxQuant software package and a volcano plot showing p-value (resulting from a two-sided t-test corrected for multiple testing; FDR 0.05%) versus LFQ intensity fold change (FIG. 1A-C) was generated with the Perseus tool.

The target of experiment [1] is PPP3CA, a calcineurin catalytic subunit, endogenous (UniProt Q08209). Description: ViroTrap: gag-FKBP12 VLPs from HEK293T cells, LC-MS/MS label-free quantification; FK506 1 µM versus DMSO control.

Where two headings read alike, the source gives them in different places.

T1 sequence (Q96SW2 whole entry, species assumed): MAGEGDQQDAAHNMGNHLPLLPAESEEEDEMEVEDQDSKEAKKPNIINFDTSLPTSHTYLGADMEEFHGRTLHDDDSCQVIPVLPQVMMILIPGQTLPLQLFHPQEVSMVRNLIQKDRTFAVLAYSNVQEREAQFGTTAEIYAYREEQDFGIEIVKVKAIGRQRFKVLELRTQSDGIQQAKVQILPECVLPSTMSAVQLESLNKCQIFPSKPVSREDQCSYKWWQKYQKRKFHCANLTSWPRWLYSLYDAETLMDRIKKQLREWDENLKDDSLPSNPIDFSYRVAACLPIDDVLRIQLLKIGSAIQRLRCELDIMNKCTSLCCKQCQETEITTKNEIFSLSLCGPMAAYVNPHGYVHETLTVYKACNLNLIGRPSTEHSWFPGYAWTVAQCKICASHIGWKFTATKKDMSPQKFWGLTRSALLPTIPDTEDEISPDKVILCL
T1 sequence (P00966 whole entry partner, species assumed): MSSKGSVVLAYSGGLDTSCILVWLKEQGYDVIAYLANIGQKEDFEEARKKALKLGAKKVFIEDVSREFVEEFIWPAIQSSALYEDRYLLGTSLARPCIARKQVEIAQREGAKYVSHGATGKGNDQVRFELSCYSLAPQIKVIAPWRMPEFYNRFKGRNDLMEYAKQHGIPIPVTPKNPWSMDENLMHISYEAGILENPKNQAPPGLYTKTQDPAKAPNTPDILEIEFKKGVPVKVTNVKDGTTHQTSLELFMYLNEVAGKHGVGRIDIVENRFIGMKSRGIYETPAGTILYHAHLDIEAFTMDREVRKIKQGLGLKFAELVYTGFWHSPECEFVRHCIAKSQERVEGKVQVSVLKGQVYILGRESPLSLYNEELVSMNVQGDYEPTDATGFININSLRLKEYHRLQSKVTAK
T1 sequence (Q16531 2-1140 partner limits assumed, species assumed): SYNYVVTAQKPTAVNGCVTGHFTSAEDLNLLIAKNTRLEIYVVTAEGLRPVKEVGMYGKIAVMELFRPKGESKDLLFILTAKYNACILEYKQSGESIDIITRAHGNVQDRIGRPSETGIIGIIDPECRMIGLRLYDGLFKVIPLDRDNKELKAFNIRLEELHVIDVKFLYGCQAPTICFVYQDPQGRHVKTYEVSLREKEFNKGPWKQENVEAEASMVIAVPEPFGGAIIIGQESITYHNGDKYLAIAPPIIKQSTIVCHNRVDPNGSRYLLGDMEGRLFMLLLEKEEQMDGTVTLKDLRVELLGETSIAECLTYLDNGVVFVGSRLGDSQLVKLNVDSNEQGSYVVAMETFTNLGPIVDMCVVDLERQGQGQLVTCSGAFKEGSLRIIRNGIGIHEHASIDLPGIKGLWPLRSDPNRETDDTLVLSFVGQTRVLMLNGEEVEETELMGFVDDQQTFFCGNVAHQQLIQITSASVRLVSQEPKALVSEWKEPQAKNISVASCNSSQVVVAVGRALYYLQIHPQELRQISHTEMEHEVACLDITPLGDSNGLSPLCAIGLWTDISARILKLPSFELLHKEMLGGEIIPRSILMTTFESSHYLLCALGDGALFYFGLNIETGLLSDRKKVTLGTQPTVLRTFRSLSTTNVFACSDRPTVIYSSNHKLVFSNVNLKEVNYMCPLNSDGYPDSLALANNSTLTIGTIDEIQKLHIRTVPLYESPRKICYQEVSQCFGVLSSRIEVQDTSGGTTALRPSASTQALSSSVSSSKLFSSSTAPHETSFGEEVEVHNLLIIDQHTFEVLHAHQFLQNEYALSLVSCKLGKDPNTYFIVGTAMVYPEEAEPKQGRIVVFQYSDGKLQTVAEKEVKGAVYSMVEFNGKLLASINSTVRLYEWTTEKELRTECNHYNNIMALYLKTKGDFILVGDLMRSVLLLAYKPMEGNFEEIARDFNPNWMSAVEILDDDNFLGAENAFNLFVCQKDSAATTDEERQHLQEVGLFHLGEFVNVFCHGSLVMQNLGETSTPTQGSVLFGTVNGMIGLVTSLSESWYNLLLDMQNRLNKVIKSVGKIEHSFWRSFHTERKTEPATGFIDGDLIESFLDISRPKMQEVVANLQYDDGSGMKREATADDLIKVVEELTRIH
Sequence of FKBP12 / PPP3CA (P62942 whole entry, species assumed, other chains not shown): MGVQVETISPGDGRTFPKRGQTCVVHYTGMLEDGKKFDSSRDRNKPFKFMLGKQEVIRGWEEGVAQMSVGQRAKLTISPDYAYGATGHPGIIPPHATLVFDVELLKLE
Sequence of FKBP12 / PPP3CA (P63098 2-170 partner limits assumed, species assumed, other chains not shown): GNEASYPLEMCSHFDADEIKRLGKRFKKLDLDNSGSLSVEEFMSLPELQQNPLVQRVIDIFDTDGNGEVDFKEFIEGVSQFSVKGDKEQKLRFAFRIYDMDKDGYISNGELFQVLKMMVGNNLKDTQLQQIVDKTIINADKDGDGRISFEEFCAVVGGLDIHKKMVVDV
Sequence of gag-FKBP12 fusion protein (P62942 whole entry, the tested form may be a part): as the sequence (P62942 whole entry, species assumed, other chains not shown) above

Regarding `C=CC[C@@H]1/C=C(\C)C[C@H](C)C[C@H](OC)[C@H]2O[C@@](O)(C(=O)C(=O)N3CCCC[C@H]3C(=O)O[C@H](/C(C)=C/[C@@H]3CC[C@@H](O)[C@H](OC)C3)[C@H](C)[C@@H](O)CC1=O)[C@H](C)C[C@@H]2OC` [FK506, tacrolimus], the “FK506-induced enrichment of PPP3CA in gag-FKBP12 virus-like particles (result in words)” value on FKBP12 / PPP3CA (FK506 versus DMSO) is reported as “enriched for the presence of PPP3CA”. For the same molecule, on FKBP12 / PPP3CA (bait FKBP12, 1 μM compound), the “Fold change (LFQ intensity, compound versus DMSO) of target protein PPP3CA” value is on record as 9.71. For the molecule `Nc1cccc2c1C(=O)N(C1CCC(=O)NC1=O)C2=O` (stereo not shown) [Pomalidomide, pomalidomide], at CRBN / ASS1, the “Compound-induced association of endogenous ASS1 with CRBN (result in words)” value was “induced the association of endogenous ASS1 with CRBN” and the “Fold change (LFQ intensity, compound versus DMSO) of target protein ASS1” value came to 2.01.

For the molecule “gag-FKBP12 fusion protein (from UniProt P62942 1-108)”, the Fold change (LFQ intensity, compound versus DMSO) in experiment [1] stood at 9.71 fold. Take `O=C1CC[C@H](N2Cc3c(OCc4ccc(CN5CCOCC5)cc4)cccc3C2=O)C(=O)N1` [CC-220]: the “Compound-induced association of endogenous ASS1 with CRBN (result in words)” value on CRBN / ASS1 (HEK293T cells, 10 μM lenalidomide, 10 μM pomalidomide, 1 μM CC-220, versus DMSO) is on record as “induced the association of endogenous ASS1 with CRBN”. For the same molecule, at CRBN / ASS1 (bait CRBN, 1 μM compound, HEK293T cells, VLPs isolated 24 h after compound addition, triplicate samples), the “Fold change (LFQ intensity, compound versus DMSO) of target protein ASS1” value came out at 3.31.
